28 compounds from patent publication US10280171B2, “Heterocyclic inhibitors of PTPN11” (priority 2016, dated 2019) can be followed below.

pIC50: −log10 of the molar value. Structures can show the parent of a compound that is named as a salt. Where two headings read alike, the source gives them in different places.

Assay [1] addresses PTPN11-E76K mutant enzyme (Homo sapiens (Human), UniProt Q06124, E76K). Description: PTPN11 Enzymatic Assay (DiFMUP phosphatase activity). In kind it is biochemical. The settings on record: full length PTPN11-E76K mutant enzyme 250 pM, DiFMUP 50 μM, 30 min preincubation; read-out: PTPN11-E76K Avg IC50. The procedure:
Reaction was initiated by addition of DiFMUP (50 μM) at room temperature in 384-well black plate with a final reaction volume of 20 uL in assay buffer. […] Dose-response curves were analyzed using IC50 regression curve fitting (GeneData Screener). Curves were normalized to a high controls without inhibitor, and low controls without enzyme.

The test system of assay [2] is Phospho-ERK levels in KYSE-520 cells. Description: pERK AlphaScreen Protocol. In kind it is cell-based. The settings on record: Homo sapiens, KYSE-520, 2 h, read-out: PERK Avg IC50. The procedure:
KYSE-520 cells (10 k cells/well) were grown in 384-well plate in 20 uL of medium (RPMI-1640, without phenol red, containing 10% FBS) at 37° C. with 5% CO2 overnight. DMSO (control) or increasing concentrations of compounds were diluted in medium, added to the 384-well plate (5 uL/well, final DMSO concentration of 1%), and cells were then incubated with compounds for 2 hr. Phospho-ERK levels were measured using phospho-ERK1/2 AlphaScreen SureFire (PerkinElmer, TGRESB10K) following manufacturer's recommendations. Dose-response curves were analyzed using IC50 regression curve fitting (GeneData Screener). Curves were normalized to a high control without inhibitor (DMSO only), and low control (1 μM selumetinib).
Background: Bead proximity is the source of the signal in Alpha formats.

Where [3] appears, read: KYSE-520 cells, 2 hr compound incubation, phospho-ERK1/2 AlphaScreen SureFire.

Chain of PTPN11-E76K mutant enzyme (Q06124 whole entry E76K): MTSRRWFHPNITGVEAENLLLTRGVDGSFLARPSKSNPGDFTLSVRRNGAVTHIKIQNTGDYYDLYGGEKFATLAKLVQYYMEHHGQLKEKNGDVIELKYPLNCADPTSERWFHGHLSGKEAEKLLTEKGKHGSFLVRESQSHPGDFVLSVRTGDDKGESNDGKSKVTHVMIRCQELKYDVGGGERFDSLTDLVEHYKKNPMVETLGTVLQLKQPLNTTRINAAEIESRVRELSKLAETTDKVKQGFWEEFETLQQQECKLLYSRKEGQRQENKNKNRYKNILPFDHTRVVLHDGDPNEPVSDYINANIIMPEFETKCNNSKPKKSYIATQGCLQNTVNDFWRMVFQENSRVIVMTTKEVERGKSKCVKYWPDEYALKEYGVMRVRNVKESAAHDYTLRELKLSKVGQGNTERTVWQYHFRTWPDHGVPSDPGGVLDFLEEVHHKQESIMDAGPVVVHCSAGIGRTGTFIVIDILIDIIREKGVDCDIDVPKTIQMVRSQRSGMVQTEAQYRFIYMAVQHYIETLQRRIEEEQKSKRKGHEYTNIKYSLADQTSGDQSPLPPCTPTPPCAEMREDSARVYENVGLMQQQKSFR

The pIC50 is the IC50 on a negative log10 scale, so that one unit is a factor of ten. On to `N[C@@H]1CCCC12CCN(c1cnc3c(-c4cccc(C(F)(F)F)c4)n[nH]c3n1)CC2` [Example 48, (R)-8-(3-(3-(trifluoromethyl)-phenyl)-1H-pyrazolo[3,4-b]pyrazin-6-yl)-8-azaspiro[4.5]decan-1-amine], for which the pIC50 in assay [1] is 5.76; in assay [2] (setting [3]) it was 6.23.
On to `N[C@@H]1CCCC12CCN(c1cnc3c(-c4cccc(Cl)c4F)n[nH]c3n1)CC2` [Example 49, (R)-8-(3-(3-chloro-2-fluorophenyl)-1H-pyrazolo[3,4-b]-pyrazin-6-yl)-8-aza-spiro[4.5]decan-1-amine], for which the pIC50 is 6.84 in assay [1] and 7.21 in assay [2] (setting [3]).
For the compound `COc1cccc(-c2n[nH]c3nc(N4CCC5(CCC[C@H]5N)CC4)cnc23)c1Cl` [Example 50, (R)-8-(3-(2-chloro-3-methoxyphenyl)-1H-pyrazolo[3,4-b]pyrazin-6-yl)-8-azaspiro[4.5]decan-1-amine], the pIC50 in assay [1] is 7.41; in assay [2] (setting [3]), 7.47.
With `N[C@@H]1CCCC12CCN(c1cnc3c(-c4ccccc4Cl)n[nH]c3n1)CC2` [Example 54, (R)-8-(3-(2-chlorophenyl)-1H-pyrazolo[3,4-b]-pyrazin-6-yl)-8-aza-spiro[4.5]decan-1-amine], the values for the pIC50 in assay [1] and in assay [2] (setting [3]) were 6.92 and 7.19, respectively.
Regarding `Cc1ncccc1-c1n[nH]c2nc(N3CCC4(CCC[C@H]4N)CC3)cnc12` [Example 55, (R)-8-(3-(2-methyl-pyridin-3-yl)-1H-pyrazolo[3,4-b]-pyrazin-6-yl)-8-azaspiro[4.5]decan-I -amine], the pIC50 is 5.94 in assay [1] and 6.15 in assay [2] (setting [3]).
`NC1(CO)CCN(c2cnc3c(-c4cccc(Cl)c4Cl)n[nH]c3n2)CC1` [Example 57, (4-Amino-1-(3-(2,3-dichlorophenyl)-1H-pyrazolo[3,4-b]pyrazin-6-yl)piperidin-4-yl)-methanol]: the pIC50 was 6.98 in assay [1] and 7.28 in assay [2] (setting [3]).
Take `NC1(CF)CCN(c2cnc3c(-c4cccc(Cl)c4Cl)n[nH]c3n2)CC1` [Example 58, 1-(3-(2,3-dichlo-rophenyl)-1H-pyrazolo[3,4-b]-pyrazin-6-yl)-4-(fluoromethyl)-piperidin-4-amine]: the pIC50 in assay [1] was 6.47; in assay [2] (setting [3]) it was 6.96.
In the case of `NCC1(O)CCN(c2cnc3c(-c4ccccc4Cl)n[nH]c3n2)CC1` [Example 60, 4-(aminomethyl)-1-(3-(2-chlorophenyl)-1H-pyrazolo[3,4-b]-pyrazin-6-yl)-piperidin-4-ol], the pIC50 in assay [1] was 6.04; in assay [2] (setting [3]), 6.50.
Take `NC1(CO)CCN(c2cnc3c(-c4ccccc4Cl)n[nH]c3n2)CC1` [Example 61, (4-amino-1-(3-(2-chlorophenyl)-1H-pyrazolo[3,4-b]-pyrazin-6-yl)-piperidin-4-yl)-methanol]: the results for the negative-log IC50 (pIC50) in assay [1] and in assay [2] (setting [3]) were 6.40 and 6.66, respectively.
On to `CC1(N)CCN(c2cnc3c(-c4cn[nH]c4C(F)(F)F)n[nH]c3n2)CC1` [Example 101, 4-Methyl-1-(3-(5-(trifluoromethyl)-1H-pyrazol-4-yl)-1H-pyrazolo[3,4-b]pyrazin-6-yl)-piperidin-4-amine], for which the pIC50 was 5.72 in assay [1] and 6.20 in assay [2] (setting [3]).
Take `N[C@@H]1CCCC12CCN(c1cnc3c(-c4cn[nH]c4C(F)(F)F)n[nH]c3n1)CC2` [Example 102, (R)-8-(3-(5-(Trifluoromethyl)-1H-pyrazol-4-yl)-1H-pyrazolo[3,4-b]pyrazin-6-yl)-8-azaspiro[4.5]decan-1-amine]: the pIC50 is 5.67 in assay [1] and 5.93 in assay [2] (setting [3]).
Consider `CC1(CN)CCN(c2cnc3c(-c4cn[nH]c4C(F)(F)F)n[nH]c3n2)CC1` [Example 103, (4-Methyl-1-(3-(5-(trifluoromethyl)-1H-pyrazol-4-yl)-1H-pyrazolo[3,4-b]-pyrazine-6-yl)piperidin-4-yl)methanamine], for which the values for the pIC50 in assay [1] and in assay [2] (setting [3]) were 5.58 and 5.79, respectively.
Consider `CNc1nccc(-c2n[nH]c3nc(N4CCC(C)(CN)CC4)cnc23)c1Cl` [Example 104, 4-(6-(4-(Aminomethyl)-4-methylpiperidin-1-yl)-1H-pyrazolo[3,4-b]pyrazin-3-yl)-3-chloro-N-methylpyridin-2-amine], for which the values for the pIC50 in assay [1] and in assay [2] (setting [3]) were 7.00 and 7.33, respectively.
The matching figures for `CC1(N)CCN(c2cnc3c(-c4cccc(N)c4Cl)n[nH]c3n2)CC1` [Example 105, 1-(3-(3-amino-2-chlorophenyl)-1H-pyrazolo[3,4-b]pyrazin-6-yl)-4-methylpiperidin-4-amine]: 6.72 and 6.92.
Turning to `CC1(N)CCN(c2cnc3c(-c4ccnc(N)c4Cl)n[nH]c3n2)CC1` [Example 106, 4-(6-(4-Amino-4-methylpiperidin-1-yl)-1H-pyrazolo[3,4-b]pyrazine-3-yl)-3-chloropyridin-2-amine], the pIC50 is 6.60 in assay [1] and 6.76 in assay [2] (setting [3]).
Take `CC1(CN)CCN(c2cnc3c(-c4ccnc(N)c4Cl)n[nH]c3n2)CC1` [Example 107, 4-(6-(4-(Aminomethyl)-4-methylpiperidin-1-yl)-1H-pyrazolo[3,4-b]pyrazin-3-yl)-3-chloropyridin-2-amine]: the values for the pIC50 in assay [1] and in assay [2] (setting [3]) were 6.79 and 6.61, respectively.
As for `N[C@@H]1CCCC12CCN(c1cnc3c(-c4ccnc(O)c4Cl)n[nH]c3n1)CC2` [Example 108, (R)-4-(6-(1-Amino-8-azaspiro[4.5]decan-8-yl)-1H-pyrazolo[3,4-b]pyrazin-3-yl)-3-chloropyridin-2-ol trifluoroacetate], the results for the pIC50 in assay [1] and in assay [2] were 6.14 and 5.17, respectively.
On to `N[C@@H]1COCC12CCN(c1cnc3c(-c4ccnc(O)c4Cl)n[nH]c3n1)CC2` [Example 109, (S)-4-(6-(4-Amino-2-oxa-8-azaspiro[4.5]decan-8-yl)-1H-pyrazolo[3,4-b]pyrazin-3-yl)-3-chloropyridin-2-ol], for which the pIC50 in assay [1] is 5.96; in assay [2] (setting [3]) it was 5.00.
As to `NC1(CO)CCN(c2cnc3c(-c4ccnc(O)c4Cl)n[nH]c3n2)CC1` [Example 110, 4-(6-(4-Amino-4-(hydroxymethyl)piperidin-1-yl)-1H-pyrazolo[3,4-b]pyrazin-3-yl)-3-chloropyridin-2-ol], the pIC50 in assay [1] is 5.43; in assay [2] (setting [3]) it was 5.11.
Consider `CNc1nccc(-c2n[nH]c3nc(N4CCC5(CCC[C@H]5N)CC4)cnc23)c1Cl` [Example 111, (R)-8-(3-(3-Chloro-2-(methylamino)pyridin-4-yl)-1H-pyrazolo[3,4-b]pyrazin-6-yl)-8-azaspiro[4.5]decan-1-amine], for which the values for the pIC50 in assay [1] and in assay [2] (setting [3]) were 7.37 and 7.70, respectively.
For `NCC1(O)CCN(c2cnc3c(-c4ccnc(N)c4Cl)n[nH]c3n2)CC1` [Example 114, 1-(3-(2-Amino-3-chloropyridin-4-yl)-1H-pyrazolo[3,4-b]pyrazin-6-yl)-4-(aminomethyl)piperidin-4-ol], the pIC50 in assay [1] was 6.11; in assay [2] (setting [3]), 5.60.
Turning to `Nc1nccc(-c2n[nH]c3nc(N4CCC5(CC4)COC[C@H]5N)cnc23)c1Cl` [Example 116, (S)-8-(3-(2-Amino-3-chloropyridin-4-yl)-1H-pyrazolo[3,4-b]pyrazin-6-yl)-2-oxa-8-azaspiro[4.5]decan-4-amine], the values for the pIC50 in assay [1] and in assay [2] (setting [3]) were 6.88 and 6.32, respectively.
In the case of `CC1(N)CCN(c2cnc3c(-c4ccnc(O)c4Cl)n[nH]c3n2)CC1` [Example 117, 4-(6-(4-Amino-4-methylpiperidin-1-yl)-1H-pyrazolo[3,4-b]pyrazin-3-yl)-3-chloropyridin-2-ol], the pIC50 is 5.71 in assay [1] and 5.32 in assay [2] (setting [3]).
Turning to `CC1(CN)CCN(c2cnc3c(-c4ccnc(O)c4Cl)n[nH]c3n2)CC1` [Example 118, 4-(6-(4-(Aminomethyl)-4-methylpiperidin-1-yl)-1H-pyrazolo[3,4-b]pyrazin-3-yl)-3-chloropyridin-2-ol], the figures for the pIC50 in assay [1] and in assay [2] (setting [3]) were 5.95 and 5.08, respectively.
On to `Nc1nccc(-c2n[nH]c3nc(N4CCC(N)(CO)CC4)cnc23)c1Cl` [Example 119, (4-Amino-1-(3-(2-amino-3-chloropyridin-4-yl)-1H-pyrazolo[3,4-b]pyrazin-6-yl)-piperidin-4-yl)methanol], for which the pIC50 in assay [1] is 6.37; in assay [2] (setting [3]), 5.76.
With `NCC1(O)CCN(c2cnc3c(-c4ccnc(O)c4Cl)n[nH]c3n2)CC1` [Example 120, 4-(6-(4-(Aminomethyl)-4-hydroxypiperidin-1-yl)-1H-pyrazolo[3,4-b]pyrazin-3-yl)-3-chloropyridin-2-ol], the pIC50 is 5.27 in assay [1] and 5.01 in assay [2] (setting [3]).
With `NC1(CO)CCN(c2cnc3c(-c4c(F)cccc4Cl)n[nH]c3n2)CC1` [Example 121, (4-Amino-1-(3-(2-chloro-6-fluorophenyl)-1H-pyrazolo[3,4-b]pyrazin-6-yl)-piperidin-4-yl)methanol], the pIC50 in assay [1] was 5.97; in assay [2] (setting [3]), 5.78.
For `Nc1cc(-c2n[nH]c3nc(N4CCC5(CCC[C@H]5N)CC4)cnc23)c(Cl)cn1` [Example 125, (R)-8-(3-(2-amino-5-chloropyridin-4-yl)-1H-pyrazolo[3,4-b]pyrazin-6-yl)-8-azaspiro[4.5]decan-1-amine] the same measures were 6.29 and 6.37.
